Source: patent US20240376121A1, “COMPOUNDS AND USES THEREOF” (Foghorn Therapeutics Inc., priority 2021, published 2024)

Columns and labels:
HiBit-BRM fusion protein = target: T1, HiBit-BRM fusion protein (Homo sapiens, UniProt P51531); experiment: HiBiT-BRM cell-based degradation assay (Nano-Glo HiBiT Lytic Detection); conditions: stable HeLa cell line expressing HiBiT-BRM, 24 h incubation; for BRM HiBit Degradation Maximum (%): top dose 30 μM; for DC50: read-out: BRM HiBit Degradation IC50
T1 construct: expressed in transfected cells
Protocol: (§1) Procedure: A stable HeLa cell line expressing HiBiT-BRM was generated. On day 0, 5000 cells were seeded in 40 μL of media into each well of 384-well cell culture plates. On day 1, cells were treated with 120 nL DMSO or 120 nL of 3-fold serially DMSO-diluted compounds (10 points in duplicate with 30 μM as final top dose). Subsequently plates were incubated for 24 h in a standard tissue culture incubator and equilibrated at room temperature for 15 minutes. Nano-Glo HiBiT Lytic Detection System (Promega N3050) reagent was freshly prepared and 20 ul was added to each well. Upon addition of this LgBit-containing reagent, the HiBiT and LgBiT proteins associate to form the luminescent NanoBiT luciferase. The plates were shaken for 10 minutes at room temperature and the bioluminescence read using an EnVision plate reader (PerkinElmer).
(§2) The degradation % was calculated using the following formula: % degradation=100%−100%×(LumSample−LumLC)/(LumHC−LumLC). DMSO treated cells are employed as High Control (HC) and 2 μM of a known BRM/BRG1 degrader standard treated cells are employed as Low Control (LC).

[1] = target: T2, HiBit-BRG1 fusion protein (Homo sapiens, UniProt P51532); experiment: HiBiT-BRG1 cell-based degradation assay (Nano-Glo HiBiT Lytic Detection); conditions: stable HeLa cell line expressing HiBit-BRG1 and LgBit, 24 h incubation; for Dmax: top dose 30 μM, read-out: BRG1 HiBit Degradation Maximum (%); for DC50: read-out: BRMG1 HiBit Degradation IC50
T2 construct: expressed in transfected cells
Protocol: as §1
For measurement of BRG1 degradation, a stable HeLa cell line expressing HiBit-BRG1 and LgBit was generated. The same protocol as above was then followed.
as §2

T2 sequence (P51532 whole entry, the tested form may be a part): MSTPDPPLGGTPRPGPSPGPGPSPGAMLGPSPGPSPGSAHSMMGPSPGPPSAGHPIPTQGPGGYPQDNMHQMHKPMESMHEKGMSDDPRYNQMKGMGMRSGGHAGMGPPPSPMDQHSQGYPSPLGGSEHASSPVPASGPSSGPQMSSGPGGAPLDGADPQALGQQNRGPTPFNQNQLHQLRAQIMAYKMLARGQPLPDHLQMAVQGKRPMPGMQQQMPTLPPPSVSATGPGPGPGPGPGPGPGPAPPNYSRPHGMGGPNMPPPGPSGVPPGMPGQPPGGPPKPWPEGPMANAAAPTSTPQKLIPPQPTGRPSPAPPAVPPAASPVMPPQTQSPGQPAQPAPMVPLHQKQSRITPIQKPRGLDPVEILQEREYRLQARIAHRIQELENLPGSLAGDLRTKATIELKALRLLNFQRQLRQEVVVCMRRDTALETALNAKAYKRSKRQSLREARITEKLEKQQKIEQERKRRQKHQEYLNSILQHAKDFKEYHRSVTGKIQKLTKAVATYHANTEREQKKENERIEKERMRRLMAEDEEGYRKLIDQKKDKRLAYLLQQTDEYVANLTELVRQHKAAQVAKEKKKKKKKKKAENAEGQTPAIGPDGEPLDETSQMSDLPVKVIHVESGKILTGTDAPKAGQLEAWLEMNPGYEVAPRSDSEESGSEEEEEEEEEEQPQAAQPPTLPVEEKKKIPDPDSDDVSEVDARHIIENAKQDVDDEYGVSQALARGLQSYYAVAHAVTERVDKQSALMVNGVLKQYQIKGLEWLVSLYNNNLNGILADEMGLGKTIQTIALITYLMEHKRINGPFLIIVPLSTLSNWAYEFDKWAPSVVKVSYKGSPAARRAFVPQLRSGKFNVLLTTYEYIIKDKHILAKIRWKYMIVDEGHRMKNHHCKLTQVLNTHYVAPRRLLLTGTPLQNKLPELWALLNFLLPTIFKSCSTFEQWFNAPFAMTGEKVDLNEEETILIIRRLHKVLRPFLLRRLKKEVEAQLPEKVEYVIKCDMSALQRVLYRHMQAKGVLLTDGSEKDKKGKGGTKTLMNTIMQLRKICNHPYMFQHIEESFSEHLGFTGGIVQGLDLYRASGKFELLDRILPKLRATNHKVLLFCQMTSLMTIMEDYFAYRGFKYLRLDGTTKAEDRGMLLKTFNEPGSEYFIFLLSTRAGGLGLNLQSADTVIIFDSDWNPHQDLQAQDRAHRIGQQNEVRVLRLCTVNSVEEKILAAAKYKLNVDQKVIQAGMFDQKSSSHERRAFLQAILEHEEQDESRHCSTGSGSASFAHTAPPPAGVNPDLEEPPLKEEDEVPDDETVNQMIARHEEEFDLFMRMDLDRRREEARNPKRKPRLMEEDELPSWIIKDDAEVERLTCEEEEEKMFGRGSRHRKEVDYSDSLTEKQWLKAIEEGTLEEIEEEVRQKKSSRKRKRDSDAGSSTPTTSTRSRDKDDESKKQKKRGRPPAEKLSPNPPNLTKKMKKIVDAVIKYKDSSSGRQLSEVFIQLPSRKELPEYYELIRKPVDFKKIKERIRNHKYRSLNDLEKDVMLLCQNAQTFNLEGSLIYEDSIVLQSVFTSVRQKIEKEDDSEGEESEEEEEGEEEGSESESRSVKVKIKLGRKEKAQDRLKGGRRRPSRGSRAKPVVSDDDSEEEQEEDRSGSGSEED
T1 sequence (P51531 whole entry, the tested form may be a part): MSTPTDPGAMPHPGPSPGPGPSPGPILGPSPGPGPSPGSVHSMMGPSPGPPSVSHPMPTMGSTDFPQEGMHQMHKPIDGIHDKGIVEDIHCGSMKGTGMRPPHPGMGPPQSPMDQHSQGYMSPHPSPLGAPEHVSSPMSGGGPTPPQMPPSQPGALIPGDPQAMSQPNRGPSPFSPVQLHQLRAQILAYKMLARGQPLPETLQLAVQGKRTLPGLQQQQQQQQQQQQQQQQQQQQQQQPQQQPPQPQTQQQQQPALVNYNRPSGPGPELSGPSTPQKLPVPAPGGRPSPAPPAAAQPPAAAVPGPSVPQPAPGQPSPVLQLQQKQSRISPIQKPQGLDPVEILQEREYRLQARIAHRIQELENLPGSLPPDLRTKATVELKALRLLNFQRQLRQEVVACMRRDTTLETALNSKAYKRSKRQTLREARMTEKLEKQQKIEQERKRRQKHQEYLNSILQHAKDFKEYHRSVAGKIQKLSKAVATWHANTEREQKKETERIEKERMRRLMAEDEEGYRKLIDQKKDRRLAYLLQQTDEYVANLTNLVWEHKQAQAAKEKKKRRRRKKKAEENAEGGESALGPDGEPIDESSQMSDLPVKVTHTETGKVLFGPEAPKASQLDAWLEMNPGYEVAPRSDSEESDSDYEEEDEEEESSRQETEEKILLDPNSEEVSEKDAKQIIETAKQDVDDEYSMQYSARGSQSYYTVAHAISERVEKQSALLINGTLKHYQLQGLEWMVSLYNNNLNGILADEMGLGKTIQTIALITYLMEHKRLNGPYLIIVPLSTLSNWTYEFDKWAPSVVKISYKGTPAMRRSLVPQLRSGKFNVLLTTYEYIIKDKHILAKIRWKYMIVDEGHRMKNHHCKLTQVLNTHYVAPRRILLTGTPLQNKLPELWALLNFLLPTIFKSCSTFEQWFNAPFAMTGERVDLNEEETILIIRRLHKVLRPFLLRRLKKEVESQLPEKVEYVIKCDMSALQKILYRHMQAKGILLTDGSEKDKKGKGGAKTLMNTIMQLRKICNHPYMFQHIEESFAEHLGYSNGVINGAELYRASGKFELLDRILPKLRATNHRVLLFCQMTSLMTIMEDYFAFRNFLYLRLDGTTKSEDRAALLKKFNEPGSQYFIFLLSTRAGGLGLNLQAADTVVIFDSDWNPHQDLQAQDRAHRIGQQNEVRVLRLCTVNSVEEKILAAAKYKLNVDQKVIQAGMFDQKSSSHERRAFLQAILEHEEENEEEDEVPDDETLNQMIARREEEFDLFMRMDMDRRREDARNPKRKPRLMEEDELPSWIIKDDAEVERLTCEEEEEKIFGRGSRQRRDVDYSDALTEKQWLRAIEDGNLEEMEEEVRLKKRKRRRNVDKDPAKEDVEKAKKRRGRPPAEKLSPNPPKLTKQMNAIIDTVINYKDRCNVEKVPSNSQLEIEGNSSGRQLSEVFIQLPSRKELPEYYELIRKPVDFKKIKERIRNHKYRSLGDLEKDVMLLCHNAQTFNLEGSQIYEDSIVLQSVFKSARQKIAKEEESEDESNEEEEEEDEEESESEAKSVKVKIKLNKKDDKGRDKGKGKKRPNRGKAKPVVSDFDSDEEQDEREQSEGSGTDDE

| DC50 (HiBit-BRM fusion protein) [µM] | Dmax [1] [%] | DC50 [1] [µM] | Structure (SMILES) | BRM HiBit Degradation Maximum (%) (HiBit-BRM fusion protein) |
| --- | --- | --- | --- | --- |
| ≥ 0.1 | < 50 | ≥ 1 | Cc1ncsc1-c1ccc([C@H](C)NC(=O)[C@@H]2C[C@@H](O)CN2C(=O)[C@@H](c2cc(N3CCC(C(=O)N4CCc5sc6nnc(-c7ccccc7O)cc6c5C4)CC3)no2)C(C)C)cc1 [Compound 11, (2S,4R)-4-hydroxy-1-((R)-2-(3-(4-(3-(2-hydroxyphenyl)-5,6,7,8-tetrahydropyrido[3′,4′:4,5]thieno[2,3-c]pyridazine-6-carbonyl)piperidin-1-yl)isoxazol-5-yl)-3-methylbutanoyl)-N—((S)-1-(4-(4-methylthiazol-5-yl)phenyl)ethyl)pyrrolidine-2-carboxamide] | A (“A” indicates maximum degradation ≥ 75%) |
| ≥ 0.01 | < 50 | ≥ 1 | Cc1ncsc1-c1ccc([C@H](C)NC(=O)[C@@H]2C[C@@H](O)CN2C(=O)[C@@H](c2cc(N3CCC(C(=O)N4CC(c5cc6nnc(-c7ccccc7O)cc6s5)C4)CC3)no2)C(C)C)cc1 [Compound 99, (2S,4R)-4-hydroxy-1-((R)-2-(3-(4-(3-(3-(2-hydroxyphenyl)thieno[3,2-c]pyridazin-6-yl)azetidine-1-carbonyl)piperidin-1-yl)isoxazol-5-yl)-3-methylbutanoyl)-N-((S)-1-(4-(4-methylthiazol-5-yl)phenyl)ethyl)pyrrolidine-2-carboxamide] | A (“A” indicates maximum degradation ≥ 75%) |
| ≥ 0.1 | < 50 | ≥ 1 | Cc1ncsc1-c1ccc([C@H](C)NC(=O)[C@@H]2C[C@@H](O)CN2C(=O)[C@@H](c2cc(N(C)CCN3CC(c4cc5nnc(-c6ccccc6O)cc5s4)C3)no2)C(C)C)cc1 [Compound 112, (2S,4R)-4-hydroxy-1-((R)-2-(3-((2-(3-(3-(2-hydroxyphenyl)thieno[3,2-c]pyridazin-6-yl)azetidin-1-yl)ethyl)(methyl)amino)isoxazol-5-yl)-3-methylbutanoyl)-N-((S)-1-(4-(4-methylthiazol-5-yl)phenyl)ethyl)pyrrolidine-2-carboxamide] | B (“B” indicates maximum degradation ≥ 50%) |
| ≥ 0.01 | < 50 | ≥ 1 | Cc1ncsc1-c1ccc([C@H](C)NC(=O)[C@@H]2C[C@@H](O)CN2C(=O)[C@@H](c2cc(OCCCN3CC(c4cc5nnc(-c6ccccc6O)cc5s4)C3)no2)C(C)C)cc1 [Compound 104, (2S,4R)-4-hydroxy-1-((R)-2-(3-(3-(3-(3-(2-hydroxyphenyl)thieno[3,2-c]pyridazin-6-yl)azetidin-1-yl)propoxy)isoxazol-5-yl)-3-methylbutanoyl)-N-((S)-1-(4-(4-methylthiazol-5-yl)phenyl)ethyl)pyrrolidine-2-carboxamide] | B (“B” indicates maximum degradation ≥ 50%) |
| ≥ 0.01 | < 50 | ≥ 1 | Cc1ncsc1-c1ccc([C@H](C)NC(=O)[C@@H]2C[C@@H](O)CN2C(=O)[C@@H](c2cc(N3CCC(CN4CC(c5sc6nnc(-c7ccccc7O)cc6c5C)C4)CC3)no2)C(C)C)cc1 [Compound 108, (2S,4R)-4-hydroxy-1-((R)-2-(3-(4-((3-(3-(2-hydroxyphenyl)-5-methylthieno[2,3-c]pyridazin-6-yl)azetidin-1-yl)methyl)piperidin-1-yl)isoxazol-5-yl)-3-methylbutanoyl)-N-((S)-1-(4-(4-methylthiazol-5-yl)phenyl)ethyl)pyrrolidine-2-carboxamide] | A (“A” indicates maximum degradation ≥ 75%) |
| ≥ 0.1 | < 50 | ≥ 1 | Cc1ncsc1-c1ccc([C@H](C)NC(=O)[C@@H]2C[C@@H](O)CN2C(=O)[C@@H](c2cc(OCCN3CCC(c4sc5nnc(-c6ccccc6O)cc5c4F)CC3)no2)C(C)C)cc1 [Compound 68, (2S,4R)-1-((R)-2-(3-(2-(4-(5-fluoro-3-(2-hydroxyphenyl)thieno[2,3-c]pyridazin-6-yl)piperidin-1-yl)ethoxy)isoxazol-5-yl)-3-methylbutanoyl)-4-hydroxy-N-((S)-1-(4-(4-methylthiazol-5-yl)phenyl)ethyl)pyrrolidine-2-carboxamide] | B (“B” indicates maximum degradation ≥ 50%) |
| ≥ 1 | < 50 | ≥ 1 | Cc1ncsc1-c1ccc([C@H](C)NC(=O)[C@@H]2C[C@@H](O)CN2C(=O)[C@@H](NC(=O)[C@H]2CC[C@@H](c3sc4nnc(-c5ccccc5O)cc4c3C)CC2)C(C)(C)C)cc1 [Compound 50, (2S,4R)-4-hydroxy-1-((S)-2-((1s,4R)-4-(3-(2-hydroxyphenyl)-5-methylthieno[2,3-c]pyridazin-6-yl)cyclohexane-1-carboxamido)-3,3-dimethylbutanoyl)-N-((S)-1-(4-(4-methylthiazol-5-yl)phenyl)ethyl)pyrrolidine-2-carboxamide] | C (“C” indicates maximum degradation < 50%) |
| < 0.01 | ≥ 50 | ≥ 1 | Cc1ncsc1-c1ccc([C@H](C)NC(=O)[C@@H]2C[C@@H](O)CN2C(=O)[C@@H](c2cc(N3CCC(C(=O)N4CCC(c5sc6nnc(-c7ccccc7O)cc6c5C)CC4)CC3)no2)C(C)C)cc1 [Compound 98, (2S,4R)-4-hydroxy-1-((R)-2-(3-(4-(4-(3-(2-hydroxyphenyl)-5-methylthieno[2,3-c]pyridazin-6-yl)piperidine-1-carbonyl)piperidin-1-yl)isoxazol-5-yl)-3-methylbutanoyl)-N-((S)-1-(4-(4-methylthiazol-5-yl)phenyl)ethyl)pyrrolidine-2-carboxamide] | A (“A” indicates maximum degradation ≥ 75%) |
| ≥ 0.1 | < 50 | ≥ 1 | Cc1ncsc1-c1ccc([C@H](C)NC(=O)[C@@H]2C[C@@H](O)CN2C(=O)[C@@H](c2cc(N3CCN(C(=O)CN4CC(c5cc6cc(-c7ccccc7O)nnc6s5)C4)CC3)no2)C(C)C)cc1 [Compound 3, (2S,4R)-4-hydroxy-1-[(2R)-2-{3-[4-(2-{3-[3-(2-hydroxyphenyl)thieno[2,3-c]pyridazin-6-yl]azetidin-1-yl}acetyl)piperazin-1-yl]-1,2-oxazol-5-yl}-3-methylbutanoyl]-N-[(1S)-1-[4-(4-methyl-1,3-thiazol-5-yl)phenyl]ethyl]pyrrolidine-2-carboxamide] | A (“A” indicates maximum degradation ≥ 75%) |
| ≥ 1 | < 50 | ≥ 1 | Cc1ncsc1-c1ccc(CNC(=O)[C@@H]2C[C@@H](O)CN2C(=O)[C@@H](NC(=O)C2(F)CC2)C(C)(C)C)c(OCC(=O)N2CCC(c3sc4nnc(-c5ccccc5O)cc4c3C)CC2)c1 [Compound 82, (2S,4R)-1-((S)-2-(1-fluorocyclopropane-1-carboxamido)-3,3-dimethylbutanoyl)-4-hydroxy-N-(2-(2-(4-(3-(2-hydroxyphenyl)-5-methylthieno[2,3-c]pyridazin-6-yl)piperidin-1-yl)-2-oxoethoxy)-4-(4-methylthiazol-5-yl)benzyl)pyrrolidine-2-carboxamide] | C (“C” indicates maximum degradation < 50%) |
| ≥ 0.1 | < 50 | ≥ 1 | Cc1ncsc1-c1ccc([C@H](C)NC(=O)[C@@H]2C[C@@H](O)CN2C(=O)[C@@H](c2cc(OCCNC(=O)[C@H]3CCc4sc5nnc(-c6ccccc6O)cc5c4C3)no2)C(C)C)cc1 [Compound 45, (S)-N-(2-((5-((R)-1-((2S,4R)-4-hydroxy-2-(((S)-1-(4-(4-methylthiazol-5-yl)phenyl)ethyl)carbamoyl)pyrrolidin-1-yl)-3-methyl-1-oxobutan-2-yl)isoxazol-3-yl)oxy)ethyl)-3-(2-hydroxyphenyl)-5,6,7,8-tetrahydrobenzo[4,5]thieno[2,3-c]pyridazine-6-carboxamide] | B (“B” indicates maximum degradation ≥ 50%) |
| ≥ 0.1 | < 50 | ≥ 1 | Cc1ncsc1-c1ccc(CNC(=O)[C@@H]2C[C@@H](O)CN2C(=O)[C@@H](NC(=O)CCC(=O)N2CCC(c3cc4nnc(-c5ccccc5O)cc4s3)CC2)C(C)(C)C)cc1 [Compound 79, (2S,4R)-4-hydroxy-1-((S)-2-(4-(4-(3-(2-hydroxyphenyl)thieno[3,2-c]pyridazin-6-yl)piperidin-1-yl)-4-oxobutanamido)-3,3-dimethylbutanoyl)-N-(4-(4-methylthiazol-5-yl)benzyl)pyrrolidine-2-carboxamide] | C (“C” indicates maximum degradation < 50%) |
| ≥ 1 | < 50 | ≥ 1 | Cc1ncsc1-c1ccc([C@H](C)NC(=O)[C@@H]2C[C@@H](O)CN2C(=O)[C@H](c2cc(N3CCC(CN4CC(c5cc6cc(-c7ccccc7O)nnc6s5)C4)CC3)no2)C(C)C)cc1 [Compound 33] | C (“C” indicates maximum degradation < 50%) |
